Assay results reported in PMC8788145 (Journal of medicinal chemistry, 2017).
“And” between values parts separate entries of the source, which are not always exact repeats. Identical values can stand only once.

Assays:
Assay type in all cases: biochemical
[1] = target: T1, human plasmin (Homo sapiens, UniProt P00747); experiment: Direct inhibition of human plasmin, chromogenic substrate; details: for HS (Hill slope): Tris-HCl buffer pH 7.4, 37 °C
[2] = target: T1, human plasmin; experiment: Michaelis-Menten kinetics of Spectrozyme PL hydrolysis by human plasmin
[3] = target: T1, human plasmin; experiment: Protamine reversibility of plasmin inhibition by NSGM 2; details: plasmin treated with inhibitor 2 (200 μM), pH 7.4, 37 °C

T1 sequence (P00747 97-580 limits assumed): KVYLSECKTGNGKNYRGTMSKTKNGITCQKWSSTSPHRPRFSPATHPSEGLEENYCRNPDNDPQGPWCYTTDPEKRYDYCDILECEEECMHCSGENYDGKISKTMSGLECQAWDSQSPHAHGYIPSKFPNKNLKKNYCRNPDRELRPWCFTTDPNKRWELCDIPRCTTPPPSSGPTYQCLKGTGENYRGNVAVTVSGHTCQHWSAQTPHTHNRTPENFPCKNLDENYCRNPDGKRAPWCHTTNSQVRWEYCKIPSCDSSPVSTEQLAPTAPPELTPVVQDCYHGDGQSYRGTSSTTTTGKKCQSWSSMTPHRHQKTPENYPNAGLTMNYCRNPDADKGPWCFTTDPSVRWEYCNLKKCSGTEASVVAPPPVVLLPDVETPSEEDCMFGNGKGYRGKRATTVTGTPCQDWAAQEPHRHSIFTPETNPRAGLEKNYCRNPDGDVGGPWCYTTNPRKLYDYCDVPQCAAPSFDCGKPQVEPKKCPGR
T1 sequence (P00747 581-810 limits assumed): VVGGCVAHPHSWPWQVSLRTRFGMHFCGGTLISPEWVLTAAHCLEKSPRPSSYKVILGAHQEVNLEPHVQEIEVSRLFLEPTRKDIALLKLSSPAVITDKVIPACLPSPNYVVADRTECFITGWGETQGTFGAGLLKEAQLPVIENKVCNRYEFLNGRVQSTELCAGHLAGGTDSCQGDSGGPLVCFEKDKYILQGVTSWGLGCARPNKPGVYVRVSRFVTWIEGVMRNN

O=c1cc(-c2ccc(OS(=O)(=O)[O-])cc2)oc2cc(OS(=O)(=O)[O-])cc(OCc3cccc(COc4cc(OS(=O)(=O)[O-])cc5oc(-c6ccc(OS(=O)(=O)[O-])cc6)cc(=O)c45)n3)c12.[Na+].[Na+].[Na+].[Na+] [NSGM 15, Sodium 4-Oxo-5-((6-(((4-oxo-7-(sulfonatooxy)-2-(4-(sulfonatooxy)phenyl)-4H-chromen-5-yl)oxy)methyl)pyridin-2-yl)methoxy)-2-(4-(sulfonatooxy)phenyl)-4H-chromen-7-yl Sulfate]
HS (Hill slope) [1]: 1.2 ± 0.2

O=c1c(OS(=O)(=O)[O-])c(-c2ccc(OS(=O)(=O)[O-])c(OS(=O)(=O)[O-])c2)oc2cc(OS(=O)(=O)[O-])cc(OCc3ccc(-c4ccc(COc5cc(OS(=O)(=O)[O-])cc6oc(-c7ccc(OS(=O)(=O)[O-])c(OS(=O)(=O)[O-])c7)c(OS(=O)(=O)[O-])c(=O)c56)cc4)cc3)c12.[Na+].[Na+].[Na+].[Na+].[Na+].[Na+].[Na+].[Na+] [NSGM 3, Sodium 4-(5-((4′-(((2-(3,4-Bis(sulfonatooxy)phenyl)-4-oxo-3,7-bis(sulfonatooxy)-4H-chromen-5-yl)oxy)methyl)-[1,1′-bi-phenyl]-4-yl)methoxy)-4-oxo-3,7-bis(sulfonatooxy)-4H-chromen-2-yl)-1,2-phenylene Bis(sulfate)]
HS (Hill slope) [1]: 0.8 ± 0.2

O=c1cc(-c2ccc(OS(=O)(=O)[O-])cc2)oc2cc(OS(=O)(=O)[O-])cc(OCc3cccc(COc4cc(OS(=O)(=O)[O-])cc5oc(-c6ccc(OS(=O)(=O)[O-])cc6)cc(=O)c45)c3)c12.[Na+].[Na+].[Na+].[Na+] [NSGM 14, Sodium 4-Oxo-5-((3-(((4-oxo-7-(sulfonatooxy)-2-(4-(sulfonatooxy)phenyl)-4H-chromen-5-yl)oxy)methyl)benzyl)-oxy)-2-(4-(sulfonatooxy)phenyl)-4H-chromen-7-yl Sulfate]
HS (Hill slope) [1]: 2.3 ± 0.5

O=c1cc(-c2ccc(OS(=O)(=O)[O-])cc2)oc2cc(OS(=O)(=O)[O-])cc(OCCOc3cc(OS(=O)(=O)[O-])cc4oc(-c5ccc(OS(=O)(=O)[O-])cc5)cc(=O)c34)c12.[Na+].[Na+].[Na+].[Na+] [NSGM 7, Sodium 4-Oxo-5-(2-((4-oxo-7-(sulfonatooxy)-2-(4-(sulfonatooxy)phenyl)-4H-chromen-5-yl)oxy)ethoxy)-2-(4-(sulfonatooxy)phenyl)-4H-chromen-7-yl Sulfate]
HS (Hill slope) [1]: 2.4 ± 0.3

O=c1c(O)c(-c2ccc(O)c(O)c2)oc2cc(O)cc(OCc3ccc(COc4cc(O)cc5oc(-c6ccc(O)c(O)c6)c(O)c(=O)c45)cc3)c12 [1j, 5,5′-((1,4-Phenylenebis(methylene))bis(oxy))bis(2-(3,4-dihydroxyphenyl)-3,7-dihydroxy-4H-chromen-4-one)]
VMAX ([2]; [inhibitor] 100 μM): 51.0 ± 4.6 mAU/min | VMAX ([2]; [inhibitor] 240 μM): 51.7 ± 3.9 mAU/min | VMAX ([2]; [inhibitor] 400 μM): 51.3 ± 4.0 mAU/min | mechanism of plasmin inhibition ([2]; from Michaelis-Menten kinetics): competitive | fold increase in KM ([2]; inhibitor concentration reaching 400 μM): ~ 13.5 fold | VMAX across inhibitor concentrations ([2]; inhibitor concentration reaching 400 μM, essentially unchanged): 50.6–51.3 mAU/min | fold less potent plasmin inhibition than NSGM 2 ([1]; 1j versus 2): about 18.3 fold

O=c1c(OS(=O)(=O)[O-])c(-c2ccc(OS(=O)(=O)[O-])c(OS(=O)(=O)[O-])c2)oc2cc(OS(=O)(=O)[O-])cc(OCc3ccc(COc4cc(OS(=O)(=O)[O-])cc5oc(-c6ccc(OS(=O)(=O)[O-])c(OS(=O)(=O)[O-])c6)c(OS(=O)(=O)[O-])c(=O)c45)cc3)c12.[Na+].[Na+].[Na+].[Na+].[Na+].[Na+].[Na+].[Na+]
VMAX ([2]; [inhibitor] 1.6 μM, pH 7.4, 37 °C): 36.3 ± 2.0 mAU/min | VMAX ([2]; [inhibitor] 8 μM): 29.0 ± 0.6 mAU/min | VMAX ([2]; [inhibitor] 100 μM): 15.1 ± 1.0 mAU/min | VMAX ([2]; [inhibitor] 200 μM, listed as 2): 10.4 mAU/min and 10.4 ± 0.5 mAU/min | HS (Hill slope) [1]: 0.7 ± 0.1

O=c1c(OS(=O)(=O)[O-])c(-c2ccc(OS(=O)(=O)[O-])c(OS(=O)(=O)[O-])c2)oc2cc(OS(=O)(=O)[O-])cc(OCCCCOc3cc(OS(=O)(=O)[O-])cc4oc(-c5ccc(OS(=O)(=O)[O-])c(OS(=O)(=O)[O-])c5)c(OS(=O)(=O)[O-])c(=O)c34)c12.[Na+].[Na+].[Na+].[Na+].[Na+].[Na+].[Na+].[Na+] [NSGM 1]
HS (Hill slope) [1]: 1.0 ± 0.2

O=c1cc(-c2ccc(OS(=O)(=O)[O-])cc2)oc2cc(OS(=O)(=O)[O-])cc(OCc3ccc(COc4cc(OS(=O)(=O)[O-])cc5oc(-c6ccc(OS(=O)(=O)[O-])cc6)cc(=O)c45)cc3)c12.[Na+].[Na+].[Na+].[Na+] [NSGM 11, Sodium 4-Oxo-5-((4-(((4-oxo-7-(sulfonatooxy)-2-(4-(sulfonatooxy)phenyl)-4H-chromen-5-yl)oxy)methyl)benzyl)-oxy)-2-(4-(sulfonatooxy)phenyl)-4H-chromen-7-yl Sulfate]
HS (Hill slope) [1]: 2.4 ± 0.3

O=c1c(OS(=O)(=O)[O-])c(-c2ccc(OS(=O)(=O)[O-])c(OS(=O)(=O)[O-])c2)oc2cc(OS(=O)(=O)[O-])cc(OCc3cccc(COc4cc(OS(=O)(=O)[O-])cc5oc(-c6ccc(OS(=O)(=O)[O-])c(OS(=O)(=O)[O-])c6)c(OS(=O)(=O)[O-])c(=O)c45)c3)c12.[Na+].[Na+].[Na+].[Na+].[Na+].[Na+].[Na+].[Na+] [NSGM 5, Sodium 4-(5-((3-(((2-(3,4-Bis(sulfonatooxy)phenyl)-4-oxo-3,7-bis(sulfonatooxy)-4H-chromen-5-yl)oxy)methyl)benzyl)-oxy)-4-oxo-3,7-bis(sulfonatooxy)-4H-chromen-2-yl)-1,2-phenylene Bis(sulfate)]
HS (Hill slope) [1]: 0.6 ± 0.1

protamine
efficacy of restoring plasmin activity [3]: ~ 100%

O=c1cc(-c2ccc(OS(=O)(=O)[O-])cc2)oc2cc(OS(=O)(=O)[O-])cc(OCc3ccc(COc4cc(OS(=O)(=O)[O-])cc5oc(-c6ccc(OS(=O)(=O)[O-])c(OS(=O)(=O)[O-])c6)c(OS(=O)(=O)[O-])c(=O)c45)cc3)c12.[Na+].[Na+].[Na+].[Na+].[Na+].[Na+] [NSGM 16, Sodium 4-(4-Oxo-5-((4-(((4-oxo-7-(sulfonatooxy)-2-(4-(sulfonatooxy)phenyl)-4H-chromen-5-yl)oxy)methyl)benzyl)-oxy)-3,7-bis(sulfonatooxy)-4H-chromen-2-yl)-1,2-phenylene Bis(sulfate)]
HS (Hill slope) [1]: 0.9 ± 0.1

O=c1cc(-c2ccc(OS(=O)(=O)[O-])cc2)oc2cc(OS(=O)(=O)[O-])cc(OCCCCOc3cc(OS(=O)(=O)[O-])cc4oc(-c5ccc(OS(=O)(=O)[O-])cc5)cc(=O)c34)c12.[Na+].[Na+].[Na+].[Na+] [NSGM 9, Sodium 4-Oxo-5-(4-((4-oxo-7-(sulfonatooxy)-2-(4-(sulfonatooxy)phenyl)-4H-chromen-5-yl)oxy)butoxy)-2-(4-(sulfonatooxy)phenyl)-4H-chromen-7-yl Sulfate]
HS (Hill slope) [1]: 1.8 ± 0.3

O=c1c(OS(=O)(=O)[O-])c(-c2ccc(OS(=O)(=O)[O-])c(OS(=O)(=O)[O-])c2)oc2cc(OS(=O)(=O)[O-])cc(OCc3cccc(COc4cc(OS(=O)(=O)[O-])cc5oc(-c6ccc(OS(=O)(=O)[O-])c(OS(=O)(=O)[O-])c6)c(OS(=O)(=O)[O-])c(=O)c45)n3)c12.[Na+].[Na+].[Na+].[Na+].[Na+].[Na+].[Na+].[Na+] [NSGM 6, Sodium 4-(5-((6-(((2-(3,4-Bis(sulfonatooxy)phenyl)-4-oxo-3,7-bis(sulfonatooxy)-4H-chromen-5-yl)oxy)methyl)pyridin-2-yl)methoxy)-4-oxo-3,7-bis(sulfonatooxy)-4H-chromen-2-yl)-1,2-phenylene Bis(sulfate)]
HS (Hill slope) [1]: 0.8 ± 0.2

O=c1cc(-c2ccc(OS(=O)(=O)[O-])cc2)oc2cc(OS(=O)(=O)[O-])cc(OC/C=C/COc3cc(OS(=O)(=O)[O-])cc4oc(-c5ccc(OS(=O)(=O)[O-])cc5)cc(=O)c34)c12.[Na+].[Na+].[Na+].[Na+] [NSGM 10, Sodium (E)-4-Oxo-5-((4-((4-oxo-7-(sulfonatooxy)-2-(4-(sulfonatooxy)phenyl)-4H-chromen-5-yl)oxy)but-2-en-1-yl)-oxy)-2-(4-(sulfonatooxy)phenyl)-4H-chromen-7-yl Sulfate]
HS (Hill slope) [1]: 0.9 ± 0.2

O=c1cc(-c2ccc(OS(=O)(=O)[O-])cc2)oc2cc(OS(=O)(=O)[O-])cc(OCc3ccc(-c4ccc(COc5cc(OS(=O)(=O)[O-])cc6oc(-c7ccc(OS(=O)(=O)[O-])cc7)cc(=O)c56)cc4)cc3)c12.[Na+].[Na+].[Na+].[Na+] [NSGM 12, Sodium 4-Oxo-5-((4′-(((4-oxo-7-(sulfonatooxy)-2-(4-(sulfonatooxy)phenyl)-4H-chromen-5-yl)oxy)methyl)-[1,1′-bi-phenyl]-4-yl)methoxy)-2-(4-(sulfonatooxy)phenyl)-4H-chromen-7-yl Sulfate]
HS (Hill slope) [1]: 1.1 ± 0.1

Cc1cc(COc2cc(OS(=O)(=O)[O-])cc3oc(-c4ccc(OS(=O)(=O)[O-])cc4)cc(=O)c23)c(C)cc1COc1cc(OS(=O)(=O)[O-])cc2oc(-c3ccc(OS(=O)(=O)[O-])cc3)cc(=O)c12.[Na+].[Na+].[Na+].[Na+] [NSGM 13, Sodium 5-((2,5-Dimethyl-4-(((4-oxo-7-(sulfonatooxy)-2-(4-(sulfonatooxy)phenyl)-4H-chromen-5-yl)oxy)methyl)benzyl)-oxy)-4-oxo-2-(4-(sulfonatooxy)phenyl)-4H-chromen-7-yl Sulfate]
HS (Hill slope) [1]: 2.0 ± 0.1

Cc1cc(COc2cc(OS(=O)(=O)[O-])cc3oc(-c4ccc(OS(=O)(=O)[O-])c(OS(=O)(=O)[O-])c4)c(OS(=O)(=O)[O-])c(=O)c23)c(C)cc1COc1cc(OS(=O)(=O)[O-])cc2oc(-c3ccc(OS(=O)(=O)[O-])c(OS(=O)(=O)[O-])c3)c(OS(=O)(=O)[O-])c(=O)c12.[Na+].[Na+].[Na+].[Na+].[Na+].[Na+].[Na+].[Na+] [NSGM 4, Sodium 4-(5-((4-(((2-(3,4-Bis(sulfonatooxy)phenyl)-4-oxo-3,7-bis(sulfonatooxy)-4H-chromen-5-yl)oxy)methyl)-2,5-dimethylbenzyl)oxy)-4-oxo-3,7-bis(sulfonatooxy)-4H-chromen-2-yl)-1,2-phenylene Bis(sulfate)]
HS (Hill slope) [1]: 0.7 ± 0.1
